pIC50: −log10 of the molar value.
target: T1, H+ K+ ATPase (lyophilised gastric vesicles) (Sus scrofa, UniProt P19156); assay: K+-stimulated ATPase activity in lyophilised gastric vesicles; assay type: biochemical; details: lyophilised gastric vesicles from pig fundic mucosa, 37° C., pH 7.0, 1 mM KCl, 30 minutes incubation
T1 construct: Lyophilised gastric vesicles were prepared from pig fundic mucosa; from tissue; host or cells: pig fundic mucosa (lyophilised gastric vesicles)
Experimental: The effects of a single high concentration (100 μM) of a compound of structure (I) on K-stimulated ATPase activity in lyophilised gastric vesicles was determined. Preferred compounds of structure (I) were also tested over a range of concentrations to determine IC50 values.
(i) Preparation of lyophilised gastric vesicles (H/K-ATPase)
Lyophilised gastric vesicles were prepared from pig fundic mucosa after the method of Keeling et. al. (Biochem. Pharmacol., 34, 2967, 1985).
(ii) K^+ -stimulated ATPase activity.
K^+ -stimulated ATPase activity was determined at 37° C. in the presence of the following : I0 mM Pipes/Tris buffer pH 7.0, 2 mM MgSO4, 1 mM KCl, 2 mM Na2 ATP and 3-6 μg protein/ml lyophilised gastric vesicles. After incubation for 30 minutes, the inorganic phosphate hydrolysed from ATP was determined by the method of Yoda and Hokin (Biochem. Biophys. Res. Commun. 40, 880, 1970).
Compounds of structure (I) were dissolved in dimethylsulphoxide which up to the highest concentration used had no effect on K+-stimulated ATPase activity.
The effect of the highest concentration of each compound of structure (I) on the recovery of a standard amount of inorganic phosphate wa also determined.

T1 sequence (P19156 2-1034 limits assumed): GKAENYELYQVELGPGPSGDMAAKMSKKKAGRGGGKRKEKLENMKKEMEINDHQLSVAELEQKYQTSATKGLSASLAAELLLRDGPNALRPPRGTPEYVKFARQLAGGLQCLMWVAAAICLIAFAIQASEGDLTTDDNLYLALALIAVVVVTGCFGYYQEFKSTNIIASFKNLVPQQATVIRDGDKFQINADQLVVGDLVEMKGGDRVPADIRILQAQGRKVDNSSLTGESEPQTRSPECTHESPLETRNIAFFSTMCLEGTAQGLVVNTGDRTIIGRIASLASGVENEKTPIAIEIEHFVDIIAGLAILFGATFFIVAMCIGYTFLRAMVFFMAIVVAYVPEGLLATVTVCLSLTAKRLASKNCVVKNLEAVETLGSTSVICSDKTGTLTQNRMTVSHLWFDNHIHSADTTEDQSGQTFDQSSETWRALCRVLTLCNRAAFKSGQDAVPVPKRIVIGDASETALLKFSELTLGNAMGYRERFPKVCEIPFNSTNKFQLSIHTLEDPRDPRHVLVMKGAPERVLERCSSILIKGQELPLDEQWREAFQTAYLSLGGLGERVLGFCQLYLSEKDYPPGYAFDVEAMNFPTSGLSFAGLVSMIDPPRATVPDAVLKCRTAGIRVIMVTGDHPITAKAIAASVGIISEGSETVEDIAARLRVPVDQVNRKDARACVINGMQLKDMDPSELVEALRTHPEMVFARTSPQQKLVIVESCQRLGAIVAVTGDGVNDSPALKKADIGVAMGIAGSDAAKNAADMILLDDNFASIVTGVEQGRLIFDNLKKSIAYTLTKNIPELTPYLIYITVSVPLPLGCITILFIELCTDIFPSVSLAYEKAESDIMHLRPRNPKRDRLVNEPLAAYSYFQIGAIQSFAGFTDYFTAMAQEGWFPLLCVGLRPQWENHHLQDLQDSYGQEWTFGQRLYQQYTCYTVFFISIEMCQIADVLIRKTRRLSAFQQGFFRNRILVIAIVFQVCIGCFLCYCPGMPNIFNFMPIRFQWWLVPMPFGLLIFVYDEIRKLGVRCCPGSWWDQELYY
T1 sequence (P18434 whole entry partner): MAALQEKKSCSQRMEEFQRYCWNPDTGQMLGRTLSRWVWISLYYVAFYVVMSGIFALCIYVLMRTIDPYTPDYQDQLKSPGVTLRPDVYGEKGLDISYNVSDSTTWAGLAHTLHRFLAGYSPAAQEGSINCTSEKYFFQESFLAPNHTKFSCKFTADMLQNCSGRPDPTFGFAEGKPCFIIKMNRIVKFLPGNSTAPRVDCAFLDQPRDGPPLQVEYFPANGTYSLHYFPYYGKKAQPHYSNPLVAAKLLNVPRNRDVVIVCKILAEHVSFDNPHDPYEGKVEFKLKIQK

| Structure (SMILES) | pIC50 |
| --- | --- |
| CCCC(=O)c1cnc2c(OCCCN(C)C)cccc2c1Nc1ccc(F)cc1C [Example 2, 3-butyryl-4-(4-fluoro-2-methylphenylamino)-8-(3-dimethylaminopropoxy)quinoline] | 5.45 to 6.41 |
| CCCC(=O)c1cnc2c(OCCN(C)C)cccc2c1Nc1ccccc1C [Example 3, 3-butyryl-4-(2-methylphenylamino)-8-(2-dimethylaminoethoxy)quinoline] | 5.45 to 6.41 |
| CCCC(=O)c1cnc2c(OCCCN3CCCCC3)cccc2c1Nc1ccccc1C [Example 5, 3-butyryl-4-(2-methylphenylamino)-8-(3-piperidinopropoxy)quinoline] | 5.45 to 6.41 |
| CCCC(=O)c1cnc2c(OCCCN3CCOCC3)cccc2c1Nc1ccccc1C [Example 6, 3-butyryl-4-(2-methylphenylamino)-8-(3-morpholinopropoxy)quinoline] | 5.45 to 6.41 |
| CCCC(=O)c1cnc2c(C(O)CN3CCOCC3)cccc2c1Nc1ccccc1C (centres unmarked) [Example 7, 3-butyryl-4-(2-methylphenylamino)-8-(1-hydroxy-2-(1-morpholino)ethyl)quinoline] | 5.45 to 6.41 |
| CCCC(=O)c1cnc2c(OCCCN(C)Cc3ccccc3)cccc2c1Nc1ccccc1C [Example 9, 3-butyryl-4-(2-methylphenylamino)-8-(3-(N-benzyl-N-methylamino)propoxy)quinoline] | 5.45 to 6.41 |

The next lines start with the values.

| pIC50 | Structure (SMILES) |
| --- | --- |
| 5.45 to 6.41 | CCCC(=O)c1cnc2c(OCCCN(C)C)cccc2c1Nc1ccccc1C [Example 1, 3-butyryl-4-(2-methylphenylamino)-8-(3-dimethylaminopropoxy)quinoline] |
| 5.45 to 6.41 | CCCC(=O)c1cnc2c(OCCCN3CCCC3)cccc2c1Nc1ccccc1C [Example 4, 3-butyryl-4-(2-methylphenylamino)-8-(3-(1-pyrrolidinyl)propoxy)quinoline] |
| 5.45 to 6.41 | CCCC(=O)c1cnc2c(C(O)CN(C)C)cccc2c1Nc1ccccc1C (centres unmarked) [Example 8, 3-butyryl-4-(2-methylphenylamino)-8-(1-hydroxy-2-dimethylaminoethyl)quinoline] |
| 5.45 to 6.41 | CCCC(=O)c1cnc2c(OCCCN(C)CCCc3ccccc3)cccc2c1Nc1ccccc1C [Example 10, 3-butyryl-4-(2-methylphenylamino)-8-(3-(N-methyl-N-(3-phenylpropyl)amino)propoxy)quinoline] |
| 5.45 to 6.41 | CCCC(=O)c1cnc2c(NCCCN3CCOCC3)cccc2c1Nc1ccccc1C [Example 11, 3-butyryl-4-(2-methylphenylamino)-8-(3-morpholinopropylamino)quinoline] |
